Test results reported in patent US20230295197A1, “STAT5 and STAT6 Degraders and Uses Thereof” (REGENTS OF THE UNIVERSITY OF MICHICAN, priority 2022, published 2023).
Like-named read-outs stand apart in the source and are kept apart here.

Key:
STAT5 = test: Immunoblotting (Western blot) analysis of STAT5 degradation efficiency of degraders in treated cells; format: cell-based
In short: (§1)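 Protein levels of STAT5 and STAT6 were assessed in cells cultured at 37 °C in 10% FBS medium after compound exposure, by quantitative fluorescent Western blotting normalised to equal loading and referenced to GAPDH.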

STAT6 = biological target: T1, STAT6 (Homo sapiens, UniProt P42226); test: Immunoblotting (Western blot) analysis of STAT6 degradation efficiency of degraders in treated cells; format: cell-based
T1 construct: endogenous in cells; host or cells: MOLM-16, KU-812, SKNO1, MB231, L1236
T1 sequence (P42226 1-847): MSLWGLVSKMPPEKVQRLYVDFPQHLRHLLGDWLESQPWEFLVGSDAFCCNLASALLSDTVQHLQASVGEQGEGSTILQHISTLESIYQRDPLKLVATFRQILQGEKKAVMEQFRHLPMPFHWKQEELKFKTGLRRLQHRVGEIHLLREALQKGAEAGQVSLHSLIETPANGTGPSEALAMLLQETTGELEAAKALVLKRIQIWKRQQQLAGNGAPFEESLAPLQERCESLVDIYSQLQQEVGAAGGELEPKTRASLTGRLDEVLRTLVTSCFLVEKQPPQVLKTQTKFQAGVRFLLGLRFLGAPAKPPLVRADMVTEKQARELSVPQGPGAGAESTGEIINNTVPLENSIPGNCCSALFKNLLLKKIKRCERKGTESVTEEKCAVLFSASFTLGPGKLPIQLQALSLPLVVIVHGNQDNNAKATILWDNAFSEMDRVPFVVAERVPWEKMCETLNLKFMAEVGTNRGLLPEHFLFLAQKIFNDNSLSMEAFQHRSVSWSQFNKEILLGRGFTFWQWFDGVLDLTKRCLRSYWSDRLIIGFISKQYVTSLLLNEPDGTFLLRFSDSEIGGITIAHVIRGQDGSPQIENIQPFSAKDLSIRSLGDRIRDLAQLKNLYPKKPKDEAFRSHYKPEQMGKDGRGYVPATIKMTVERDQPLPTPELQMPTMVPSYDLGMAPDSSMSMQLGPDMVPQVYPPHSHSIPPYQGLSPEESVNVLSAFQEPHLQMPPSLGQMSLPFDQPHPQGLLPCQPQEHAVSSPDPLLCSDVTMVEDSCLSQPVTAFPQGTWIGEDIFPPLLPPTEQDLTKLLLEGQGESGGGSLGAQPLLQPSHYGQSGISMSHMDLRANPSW
In short: as §1

[1] = MOLM-16 cells, class symbols, read-out: DC50 S5 MOLM-16
[2] = MOLM-16 cells, numeric bound, read-out: DC50 S6 MOLM-16
[3] = MOLM-16 cells, class symbols, read-out: DC50 S6 MOLM-16
[4] = MOLM-16 cells, numeric bound, read-out: DC50 S5 MOLM-16
[5] = KU-812 cells, read-out: DC50 S5 KU-812
[6] = SKNO1 cells, read-out: DC50 S5 SKNO1
[7] = MB231 cells, read-out: DC50 S6 MB231

Row | SMILES | DC50 (STAT5; [1]) [nM] | DC50 (STAT6; [2]) [nM] | DC50 (STAT6; [3]) [nM] | DC50 (STAT5; [4]) [nM] | DC50 (STAT5; [5]) [nM] | DC50 (STAT5; [6]) [nM] | DC50 (STAT6; [7]) [nM]
1 | CC(C)(C)C(=O)OCOP(=O)(O)C(F)(F)c1ccc2sc(C(=O)N[C@H](C(=O)N3C[C@@H](OCCCCCC#Cc4cccc5c4CN(C4CCC(=O)NC4=O)C5=O)C[C@H]3C(=O)N3CCO[C@H](c4ccccc4)C3)C(C)(C)C)cc2c1 (stereo partly drawn) [Compound 652, ((((2-(((2S)-1-((2S,4S)-4-((7-(2-(2,6-dioxopiperidin-3-yl)-1-oxoisoindolin-4-yl)hept-6-yn-1-yl)oxy)-2-((R)-2-phenylmorpholine-4-carbonyl)pyrrolidin-1-yl)-3,3-dimethyl-1-oxobutan-2-yl)carbamoyl)benzo[b]thiophen-5-yl)difluoromethyl)(hydroxy)phosphoryl)oxy)methyl pivalate] | > 10000 | – | < 100 | – | – | – | –
2 | Cc1ncsc1-c1ccc([C@H](CC(=O)NCCCCCCC(=O)N[C@@H]2C[C@@H](C(=O)Nc3ncc(-c4ccccc4)s3)N(C(=O)[C@@H](NC(=O)c3cc4cc(C(F)(F)P(=O)(O)O)ccc4s3)C(C)(C)C)C2)NC(=O)[C@@H]2C[C@@H](O)CN2C(=O)[C@@H](NC(=O)C2(F)CC2)C(C)(C)C)cc1 [Compound 576, (difluoro(2-(((S)-1-((2S,4R)-4-(7-((S)-3-((2S,4R)-1-((S)-2-(1-fluorocyclopropane-1-carboxamido)-3,3-dimethylbutanoyl)-4-hydroxypyrrolidine-2-carboxamido)-3-(4-(4-methylthiazol-5-yl)phenyl)propanamido)heptanamido)-2-((5-phenylthiazol-2-yl)carbamoyl)pyrrolidin-1-yl)-3,3-dimethyl-1-oxobutan-2-yl)carbamoyl)benzo[b]thiophen-5-yl)methyl)phosphonic acid] | – | > 300 | – | > 300 | – | – | –
3 | CC(C)(C)[C@H](NC(=O)c1cc2cc(C(F)(F)P(=O)(O)O)ccc2s1)C(=O)N1C[C@@H](OCCCCCC#Cc2cccc3c2CN(C2CCC(=O)NC2=O)C3=O)C[C@H]1C(=O)N1CCO[C@H](c2ccccc2)C1 (stereo partly drawn) [Compound 593, ((2-(((2S)-1-((2S,4S)-4-((7-(2-(2,6-dioxopiperidin-3-yl)-1-oxoisoindolin-4-yl)hept-6-yn-1-yl)oxy)-2-((R)-2-phenylmorpholine-4-carbonyl)pyrrolidin-1-yl)-3,3-dimethyl-1-oxobutan-2-yl)carbamoyl)benzo[b]thiophen-5-yl)difluoromethyl)phosphonic acid] | > 10000 | – | < 100 | – | – | – | –
4 | CC(C)(C)[C@H](NC(=O)c1cc2cc(C(F)(F)P(=O)(O)O)ccc2s1)C(=O)N1CCC[C@H]1C(=O)N(CCCCCCCC#Cc1cccc2c1CN(C1CCC(=O)NC1=O)C2=O)c1ccc(-c2nccs2)cc1 (stereo partly drawn) [Compound 670, ((2-(((2S)-1-((2S)-2-((9-(2-(2,6-dioxopiperidin-3-yl)-1-oxoisoindolin-4-yl)non-8-yn-1-yl)(4-(thiazol-2-yl)phenyl)carbamoyl)pyrrolidin-1-yl)-3,3-dimethyl-1-oxobutan-2-yl)carbamoyl)benzo[b]thiophen-5-yl)difluoromethyl)phosphonic acid] | – | > 300 | – | > 300 | – | > 10000 | –
5 | CC(C)(C)[C@H](NC(=O)c1cc2cc(C(F)(F)P(=O)(O)O)ccc2s1)C(=O)N1CCC[C@H]1C(=O)N(CCC(=O)NCCCCCCCCC#Cc1cccc2c1CN(C1CCC(=O)NC1=O)C2=O)c1ccc(Br)cc1 (stereo partly drawn) [Compound 403, ((2-(((2S)-1-((2S)-2-((4-bromophenyl)(3-((10-(2-(2,6-dioxopiperidin-3-yl)-1-oxoisoindolin-4-yl)dec-9-yn-1-yl)amino)-3-oxopropyl)carbamoyl)pyrrolidin-1-yl)-3,3-dimethyl-1-oxobutan-2-yl)carbamoyl)benzo[b]thiophen-5-yl)difluoromethyl)phosphonic acid] | 1000 to 10000 | – | > 10000 | – | > 10000 | – | > 10000

Other lines, results leading:

Row | DC50 (STAT5; [1]) [nM] | DC50 (STAT6; [2]) [nM] | DC50 (STAT6; [3]) [nM] | DC50 (STAT5; [4]) [nM] | DC50 (STAT5; [5]) [nM] | DC50 (STAT5; [6]) [nM] | DC50 (STAT6; [7]) [nM] | SMILES
6 | < 100 | > 300 | – | – | – | – | – | CN(CCCC#Cc1cccc2c1CN(C1CCC(=O)NC1=O)C2=O)C(=O)CCN(C(=O)[C@@H]1CCCN1C(=O)[C@@H](NC(=O)c1cc2cc(C(F)(F)P(=O)(O)OCOC(=O)C(C)(C)C)ccc2s1)C(C)(C)C)c1ccc2ccccc2c1 (stereo partly drawn) [Compound 673, ((((2-(((2S)-1-((2S)-2-((3-((5-(2-(2,6-dioxopiperidin-3-yl)-1-oxoisoindolin-4-yl)pent-4-yn-1-yl)(methyl)amino)-3-oxopropyl)(naphthalen-2-yl)carbamoyl)pyrrolidin-1-yl)-3,3-dimethyl-1-oxobutan-2-yl)carbamoyl)benzo[b]thiophen-5-yl)difluoromethyl)(hydroxy)phosphoryl)oxy)methyl pivalate]
7 | < 100 | > 300 | – | – | 100 to 1000 | 100 to 1000 | – | CC(C)(C)[C@H](NC(=O)c1cc2cc(C(F)(F)P(=O)(O)O)ccc2s1)C(=O)N1CCC[C@H]1C(=O)N(CCC(=O)NCCCC#Cc1cccc2c1CN(C1CCC(=O)NC1=O)C2=O)c1ccc2sccc2c1 (stereo partly drawn) [Compound 650, ((2-(((2S)-1-((2S)-2-(benzo[b]thiophen-5-yl(3-((5-(2-(2,6-dioxopiperidin-3-yl)-1-oxoisoindolin-4-yl)pent-4-yn-1-yl)amino)-3-oxopropyl)carbamoyl)pyrrolidin-1-yl)-3,3-dimethyl-1-oxobutan-2-yl)carbamoyl)benzo[b]thiophen-5-yl)difluoromethyl)phosphonic acid]
8 | – | > 300 | – | > 300 | 1000 to 10000 | 1000 to 10000 | – | CC(C)(C)[C@H](NC(=O)c1cc2cc(C(F)(F)P(=O)(O)O)ccc2s1)C(=O)N1CCC[C@H]1C(=O)N(CCC(=O)NCCCC#Cc1cccc2c1CN(C1CCC(=O)NC1=O)C2=O)c1ccc(-c2ccccc2)cc1 (stereo partly drawn) [Compound 663, ((2-(((2S)-1-((2S)-2-([1,1′-biphenyl]-4-yl(3-((5-(2-(2,6-dioxopiperidin-3-yl)-1-oxoisoindolin-4-yl)pent-4-yn-1-yl)amino)-3-oxopropyl)carbamoyl)pyrrolidin-1-yl)-3,3-dimethyl-1-oxobutan-2-yl)carbamoyl)benzo[b]thiophen-5-yl)difluoromethyl)phosphonic acid]
9 | < 100 | – | > 10000 | – | 100 to 1000 | – | – | CN(CCCC#Cc1cccc2c1CN(C1CCC(=O)NC1=O)C2=O)C(=O)CCN(C(=O)[C@@H]1CCCN1C(=O)[C@@H](NC(=O)c1cc2cc(C(F)(F)P(=O)(O)OCOC(=O)C(C)(C)C)ccc2s1)C(C)(C)C)c1ccc(-c2nccs2)cc1 (stereo partly drawn) [Compound 679, ((((2-(((2S)-1-((2S)-2-((3-((5-(2-(2,6-dioxopiperidin-3-yl)-1-oxoisoindolin-4-yl)pent-4-yn-1-yl)(methyl)amino)-3-oxopropyl)(4-(thiazol-2-yl)phenyl)carbamoyl)pyrrolidin-1-yl)-3,3-dimethyl-1-oxobutan-2-yl)carbamoyl)benzo[b]thiophen-5-yl)difluoromethyl)(hydroxy)phosphoryl)oxy)methyl pivalate]
10 | < 100 | > 300 | – | – | – | – | – | CN(CCCC#Cc1cccc2c1CN(C1CCC(=O)NC1=O)C2=O)C(=O)CCN(C(=O)[C@@H]1CCCN1C(=O)[C@@H](NC(=O)c1cc2cc(C(F)(F)P(=O)(O)OCOC(=O)C(C)(C)C)ccc2s1)C(C)(C)C)c1ccc2ccoc2c1 (stereo partly drawn) [Compound 674, ((((2-(((2S)-1-((2S)-2-(benzofuran-6-yl(3-((5-(2-(2,6-dioxopiperidin-3-yl)-1-oxoisoindolin-4-yl)pent-4-yn-1-yl)(methyl)amino)-3-oxopropyl)carbamoyl)pyrrolidin-1-yl)-3,3-dimethyl-1-oxobutan-2-yl)carbamoyl)benzo[b]thiophen-5-yl)difluoromethyl)(hydroxy)phosphoryl)oxy)methyl pivalate]
11 | 100 to 1000 | – | > 10000 | – | 100 to 1000 | 100 to 1000 | > 10000 | CC(C)(C)[C@H](NC(=O)c1cc2cc(C(F)(F)P(=O)(O)O)ccc2s1)C(=O)N1CCC[C@H]1C(=O)N(CCC(=O)NCCCCCC#Cc1cccc2c1CN(C1CCC(=O)NC1=O)C2=O)c1ccc(Br)cc1 (stereo partly drawn) [Compound 405, ((2-(((2S)-1-((2S)-2-((4-bromophenyl)(3-((7-(2-(2,6-dioxopiperidin-3-yl)-1-oxoisoindolin-4-yl)hept-6-yn-1-yl)amino)-3-oxopropyl)carbamoyl)pyrrolidin-1-yl)-3,3-dimethyl-1-oxobutan-2-yl)carbamoyl)benzo[b]thiophen-5-yl)difluoromethyl)phosphonic acid]
